Laboratory results published in patent US12151010B2, “Skin lightening agent” (POLA CHEMICAL INDUSTRIES, INC., priority 2018, dated 2024).

System: pigmentation of UV-irradiated test sites on the medial upper arms of panelists
Experiment: Test of skin whitening effect (pigmentation ameliorating effect), skin lightness L* by color difference meter after UV irradiation
Assay type: in vivo, human (panelists)
Conditions: for Pigmentation amelioration Rating: 25-day application; for Pigmentation amelioration ΔL*: 50 μL twice a day for 25 days after 3x 1 MED UV, L* minus Comparative Example site
Method: The cosmetics according to Table 1 (Examples 1 to 9, Comparative Example, and Reference Example) were prepared respectively in a conventional manner. With regard to each of the prepared cosmetics, the skin whitening effect (pigmentation ameliorating effect) was evaluated by the following method. That is, total 8 test sites in a size of 0.5 cm×0.5 cm were established on the medial parts of the left and right upper arms of each of 10 panelists who participated voluntarily. Each established site was irradiated with a minimum erythema dose (1 MED) of UV light once a day for three consecutive days, namely totally three times. At the end of the UV irradiation on the first day of the test (at the end of the first irradiation) and thereafter each 50 μL of the cosmetics of Comparative Example and any one of Examples 1 to 9 or Reference Example were applied respectively to one site and the remaining seven sites twice a day for 25 consecutive days. The skin lightness (L* value) of each test site was measured 24 hours after the end of the 25-day application period with a color difference meter (CR-300, Konica Minolta Holdings, Inc.). By subtracting the L* value of the site to which the cosmetic of Comparative Example was applied from each L* value of the sites to which the cosmetic of Example or Reference Example was applied, the difference in skin lightness (ΔL* value) was calculated. Since the L* value decreases, as the degree of pigmentation becomes severer, it may be so judged that pigmentation is ameliorated, when the ΔL* value is higher.

[1] = content 1% by mass in Table 1 cosmetic
[2] = content 0.01% by mass in Table 1 cosmetic
[3] = content 3% by mass in Table 1 cosmetic

SMILES	Pigmentation amelioration Rating [1]	Pigmentation amelioration ΔL* [1]	Pigmentation amelioration Rating [2]	Pigmentation amelioration ΔL* [2]	Pigmentation amelioration Rating [3]	Pigmentation amelioration ΔL* [3]
CCCCCC(=O)OCC(C)Cc1ccc(C(=O)C2CCC(CN)CC2)cc1 (centres unmarked) [Compound 5, 2-methyl-3-[p-(4-aminomethylcyclohexylcarbonyl)phenyl]propyl hexanoate]	A (0.4 < ΔL* < 0.5)	0.42				
NCC1CCC(C(=O)c2ccc(CCC(=O)O)cc2)CC1 (centres unmarked) [Compound 1, 3-[p-(4-aminomethylcyclohexylcarbonyl)phenyl]propionic acid]	AA (ΔL* ≥ 0.5%)	0.50	A (0.4 < ΔL* < 0.5)	0.47	AA (ΔL* ≥ 0.5%)	0.52
Cl.NCC1CCC(C(=O)c2ccc(CCC(=O)O)cc2)CC1 (centres unmarked) [Hydrochloride of Compound 1]	AA (ΔL* ≥ 0.5%)	0.52				
CCCCCCOC(=O)CCc1ccc(C(=O)C2CCC(CN)CC2)cc1 (centres unmarked) [Compound 2, 3-[p-(4-aminomethylcyclohexylcarbonyl)phenyl]propionate hexyl]	A (0.4 < ΔL* < 0.5)	0.43				
NCC1CCC(C(=O)c2ccc(CCCO)cc2)CC1 (centres unmarked) [Compound 3, 3-[p-(4-aminomethylcyclohexylcarbonyl)phenyl]propanol]	A (0.4 < ΔL* < 0.5)	0.48	A (0.4 < ΔL* < 0.5)	0.45		
CCCCCC(=O)OCCCc1ccc(C(=O)C2CCC(CN)CC2)cc1 (centres unmarked) [Compound 4, 3-[p-(4-aminomethylcyclohexylcarbonyl)phenyl]propyl hexanoate]	A (0.4 < ΔL* < 0.5)	0.45				
NC[C@H]1CC[C@H](C(=O)O)CC1 [Tranexamic acid, reference compound]	B (ΔL* ≤ 0.4)	0.40				
